These results are taken from patent US5356886A, “Antiviral phosphono-alken derivatives of purines” (Beecham Group p.l.c., priority 1990, dated 1994).

Common to all, as to type: cell-based
One data set has as its system FIV. Kind of data set: Test for Feline Immunodeficiency Virus (FIV Glasgow 8) in Crandell Feline Kidney cells. To be noted: FIV Glasgow 8, Crandell Feline Kidney cells, 11-14 days, read-out: MIC (minimum concentration of drug inhibiting syncitial production). The procedure:
(§1) Drug stocks were diluted to the appropriate concentration, in medium (e.g. 10 mg/ml to 200 μg/ml). 150 μl of each drug was dispersed in triplicate, across the top row of a microtitre plate (150 μl of media for virus and cell control, vc and cc). 100 μl of medium was dispersed into all other wells. The wells were serially diluted moving down the plate, removing 50 μl from each well and transferring to the next row. 50 μl was discarded from the bottom wells.
(§2) Trypsinisation was carried out from a confluent cell monolayer of Crandell Feline Kidney cells, in 10% trypsin, followed by resuspension in media at 1×10^6 per ml, ensuring that a single cell suspension is achieved. (Media: 90% 1×RPMI, 25 mM hepes buffer; 10% Foetal calf serum; 2% Glutamine; 2% penecillin/streptomycin.)
(§3) FIV Glasgow 8 virus was diluted to 4× the required virus challenge in medium (40 TCID50 /ml). The virus infected medium was mixed with an equal volume of cell suspension, 100 μl of which was aliquoted into each well of the drug plate, except cell control. 100 μl of cell suspension at 5×10^4 per ml was added to the latter. This gives a final cell concentration of 2.5×10^4 per ml, and drug range 100-0.03 μg/ml. The plates were incubated at 37° C., 5% CO2 in an air humidified incabator for 11-14 days. The cells were fixed by immersing the plates in formoli saline (10% formaldehyde; 10% 1.5M NaCl; 80% water) for 1 hour minimum. The cells were stained with 10% crystal violet for 15 minutes.
(§4) The assay was scored by looking for presence of syncitia and, virus induced cytopathic effect in the cell monolayers, under a microscope. Results are given as the minimum concentration of drug inhibiting syncitial production, minimum inhibitory concentration, MIC.

The test system of a further data set is Visna Virus. Briefly: CPE Inhibition Test (Established Monolayer) for Lentiviruses, visna virus (strain K184) in sheep choroid plexus cells. To be noted: Visna-maedi virus; visna virus strain K184, SCP cells; read-out: MIC (minimum concentration giving complete protection of the cell monolayers). As to the method:
3×10^4 sheep choroid plexus (SCP) cells were plated into individual wells of a 96 well microtitre plate in 100 μl of Eagle's MEM with Hanks' salts containing 10% heat inactivated foetal calf serum (FCS). When monolayers had become established (after 1 or 2 days growth) they were washed with 200 μl of maintenance medium (Eagle's MEM with Hanks' salts containing 0.5% FCS) and infected with 100 μl of visna virus (strain K184) in maintenance medium (30 TCID50/ml). Test samples were diluted with maintenance medium in further 96 well microtitre plates over the range 200-0.06 μg/ml by 3-fold dilution steps. 100 μl of the diluted samples was then transferred directly onto virus-infected monolayers (final concentration range therefore 100-0.03 μg/ml) and […] containing 5% CO2 until virus-induced CPE was maximal in the untreated virus-infected controls (usually 12-14 days). The plates were fixed with formal saline and stained with crystal violet. Virus-induced CPE was then scored microscopically and the minimum concentration of sample giving complete protection of the cell monolayers (MIC) determined.

Data set [1] can be described thus: Cytotoxicity for the cell monolayers in the FIV test. To be noted: cat, crandell feline kidney cells. The procedure: as §1, §2, §3, §4
Data set [2] has as its system HIV. Briefly: HIV Suppression test, viral antigen (core protein p24, sandwich ELISA) in peripheral human lymphocytes. As to conditions: Human immunodeficiency virus 1, Lymphocyte, 96 h; Concn. 10 μM; read-out: % Inhibition on Day 4 after infection, Viral Antigen. As to the method: (§5) Peripheral human lymphocytes were prepared, cultivated, and harvested as above. Following the determination of the lymphocyte surface markers, unstimulated and mitogen stimulated cells were combined in a ratio of 1:2.
(§6) Under safety conditions these cells are infected with a standard preparation of HIV. The cells are sedimented by centrifugation. The supernatant was discarded and cells were resuspended in the HIV inoculum.
(§7) This inoculum is a liquid suspension of HIV-1 strain virus, pretested and adjusted to a titer that results in a synthesis of viral core protein p24 of >100 ng/ml at day four following infection of human lymphocytes according to the protocol.
(§8) 3×10^8 lymphocytes were resuspended in 1 ml HIV inoculum and incubated at 37° C. for 60 minutes. Subsequently, the cells were washed two times with 50 ml of culture medium and resuspended in culture medium containing 10 units/ml of human recombinant interleukin-2 to yield a cell concentration of 2×10^6 cells/ml. 100 μof this cell suspension was added to each well of the microtiter plates containing the diluted solutions of the compounds. The microtiter plates were cultivated in an incubator with a humidified atmosphere and 5% CO2 at 37° C.
(§9) Accordingly, a fraction of lymphocytes was mock-infected with the same virus preparation that was heat inactivated (30 minutes at 56° C.) prior to infection.
(§10) On each of the days 2,3 and 4 post infection one of the microtiter plates which had been established in triplicate was prepared for determination of viral replication. Viral RNA is determined within the cells whereas the viral core protein p24 was detected in the supernatant of the lymphocyte culture.
(§11) Accordingly, 150 μl of supernatant were removed from each well and transferred to the well of a microtiter plate containing 50 μl/well of SDS (sodium dodecylsulfate, 0.08%). These plates were stored frozen. 50 μl of stop solution (1% SDS, 20 mM sodium acetate, pH 5.0, and 200 μg/ml heparin) were added to the cells remaining in each well. The plates were stored frozen.
(§12) The concentration of p24 synthesized by the HIV infected cells was determined by means of a sandwich ELISA, while the concentration of viral RNA was quantitated by nucleic acid hybridisation, using a ^32 P-labelled DNA probe for the gag/pol region of the viral genome. Absolute levels of viral antigen and RNA in drug treated samples were compared with untreated, virus-infected controls and the percentage inhibition calculated.
On the technique in general: An ELISA detects its analyte on a solid surface through an enzyme-linked reagent.

Data set [3] deals with HIV. Kind of data set: HIV Suppression test, viral RNA (nucleic acid hybridisation) in peripheral human lymphocytes. As to conditions: Human immunodeficiency virus 1, Lymphocyte, 96 h; Concn. 10 μM; read-out: % Inhibition on Day 4 after infection, Viral RNA. As to the method: as §5, §6, §7, §8, §9, §10, §11, §12
A further data set relates to HSV-2. Briefly: Plaque Reduction Test for Herpes Simplex Virus 2 (strain MS) in MRC-5 cells. As to conditions: Human alphaherpesvirus 2, MRC5. As to the method: (§13) MRC-5 cells were grown to confluence in 24 well multi-dishes (well diameter=1.5 cm). The drained cell monolayers were each infected with approximately 50 infectious particles of herpes simplex virus 1 (HSV-1; strain SC16) or herpes simplex virus 2 (HSV-2; strain MS) in 100 μl of phosphate-buffered saline. The virus was adsorbed for 1 hour at room temperature. After adsorption, residual inoculum was removed from each well and replaced with 0.5 ml of Eagle's MEM containing 5% newborn calf serum and 0.9% agarose (A37). Once the agarose had set, dilutions of the test compound, which had been prepared in Eagle's MEM (containing 5% newborn calf serum), were added, each well receiving 0.5 ml of liquid overlay. The test compound was diluted to give the following series of concentrations: 200, 60, 20, 6 . . . 0.06 μg/ml; final concentrations in the assay ranged, therefore, between 100 μg/ml and 0.03 μg/ml. The infected cultures were incubated at 37° C. in a humidified atmosphere of 5% CO2 until plaques were clearly visible (usually 1 day).
(§14) Cultures from 1 and 2 were fixed in formal saline, the agarose overlays were carefully washed off, and then the cell monolayers were stained with carbol fuchsin. A stereo microscope was used to count plaques. The IC50 (concentration of drug which inhibits the number of plaques formed by 50% relative to the number of plaques observed in virus control monolayers) of the test compound was calculated. In addition, the monolayers were examined for evidence of drug-induced cytotoxicity; the minimum concentration at which cytotoxicity occurs was recorded.
In general terms: Plaque reduction counts the foci of infection that form in a cell layer.

The next data set has as its system VZV. Kind of data set: Plaque Reduction Test for Varicella-Zoster Virus (Ellen strain) in MRC-5 cells. To be noted: Human alphaherpesvirus 3, MRC5. As to the method: as §13, with “varicella zoster” for “herpes simplex”, “(VZV; Ellen strain)” for “1 (HSV-1; strain SC16) or herpes simplex virus 2 (HSV-2; strain MS)”, “heat-inactivated foetal” for “newborn”, “(5 or 6 days).” for “(usually 1 day).”
as §14

The subject of another data set is CMV. Briefly: Plaque Reduction Test for Cytomegalovirus (AD-169 strain) in MRC-5 cells. As to conditions: Human betaherpesvirus 5, AD169, MRC5. As to the method: MRC-5 cells were grown to confluence in 24 well multi-dishes (well diameter=1.5 cm). The drained cell monolayers were each infected with approximately 50 infectious particles of cytomegalovirus (CMV; AD-169 strain) in 100 μl of phosphate-buffered saline. The virus was adsorbed for 1 hour at room temperature. After adsorption, residual inoculum was removed from each well and replaced with 1 ml of Eagle's MEM containing 10% heat inactivated foetal calf serum and 0.9% agarose (A37). Once the agarose had set, dilutions of the test compound, which had been prepared in Eagle's MEM (containing 10% heat-inactivated calf serum), were added, each well receiving 1 ml of liquid overlay. The test compound was diluted to give the following series of concentrations: 200, 60, 20, 6 . . . 0.06 μg/ml; final concentrations in the assay range, therefore, between 100 μg/ml and 0.03 μg/ml. The infected cultures were incubated at 37° C. in a humidified atmosphere containing 5% CO2 until plaques were clearly visible (about 12 days). The cultures are fixed in formol saline, the agarose overlays were carefully washed off, and then the cell monolayers were stained with carbol fuchsin. A stereo microscope was used to count plaques. The IC50 (concentration of drug which inhibits the number of plaques formed by 50% relative to the number of plaques observed in virus control monolayers) of the test compound was calculated. In addition, the monolayers were examined for evidence of drug-induced cytotoxicity; the minimum concentration at which cytotoxicity occurs was recorded.

The test system of another data set is HSV-1. Briefly: Plaque Reduction Test for Herpes Simplex Virus 1 (strain SC16) in MRC-5 cells. As to conditions: Human alphaherpesvirus 1, MRC5. As to the method: as §13, §14
Setting [4] is: no cytotoxicity noted with concentrations up to this value, read-out: cytotoxicity for the cell monolayers.
Setting [5] is: read-out: concentration at which cytotoxicity was noted.

≈ marks a conversion by molar mass, not a printed value. Read-outs that look alike come from different tables or passages of the source.

Usually inhibition stands for the relative decrease from the control value, in per cent. The term IC50 denotes the concentration at which inhibition is half-maximal.

Take `Nc1ncnc2c1ncn2OCC/C=C/P(=O)(O)O` [Example 3, (E)-9-(4-phosphonobut-3-enyloxy)adenine]: the MIC with FIV and in the data set with Visna Virus was 10 mg/L (≈ 35.1 µM) in each case. Moreover, in data set [1] (setting [4]), the MCC is greater than 100 µg/mL. For the same compound, the inhibition at 10 µM with HIV [2] was 47%; with HIV [3] it was 44%.
`Nc1ncnc2c1ncn2CC/C=C/P(=O)(O)O` [Example 5, (E)-9-[4-Phosphonobut-3-enyl]adenine]: the MIC in the data set with Visna Virus was 1 mg/L (≈ 3.71 µM).
For the compound `Nc1nc2c(ncn2CC/C=C/P(=O)(O)O)c(=O)[nH]1` [Example 6, (E)-9-[4-phosphonobut-3-enyl]guanine], the IC50 in the data set on HSV-2 worked out at 26 mg/L (≈ 91.2 µM); in the data set with VZV, 55 mg/L (≈ 193 µM); in the data set with CMV, 15 mg/L (≈ 52.6 µM); in the data set with HSV-1, 100 mg/L (≈ 351 µM). For the same compound, in the data set with Visna Virus, the MIC came to 0.1 mg/L (≈ 0.351 µM).
Regarding `Nc1nc(N)c2ncn(CC/C=C/P(=O)(O)O)c2n1` [Example 8, (E)-2,6-Diamino-9-(4-phosphonobut-3-enyl)purine], the MIC in the data set on Visna Virus came to 0.3 mg/L (≈ 1.06 µM). The inhibition at 10 µM was found to be 37% with HIV [2] and 62% in the data set with HIV [3].
For the compound `Nc1ncnc2c1ncn2OCC/C=C\P(=O)(O)O` [Example 10, (Z)-9-(4-Phosphonobut-3-enyloxy) adenine], in the data set with Visna Virus, the MIC is 100 mg/L (≈ 351 µM).
`Nc1nc2c(ncn2OCC/C=C\P(=O)(O)O)c(=O)[nH]1` [Example 11, (Z)-9-(4-phosphonobut-3-enyloxy)guanine]: the half-inhibitory concentration (IC50) is greater than 100 mg/L with HSV-2, greater than 100 mg/L in the data set with VZV, 55 mg/L (≈ 183 µM) with CMV and 100 mg/L (≈ 332 µM) in the data set on HSV-1. The MIC with Visna Virus is less than 0.03 mg/L. Further, the inhibition at 10 µM with HIV [2] was 3%; with HIV [3], 33%.
In the case of `Nc1nc2c(ncn2OCC(/C=C/P(=O)(O)O)CO)c(=O)[nH]1` (stereo not drawn) [Example 13, (E)-9-(2-hydroxymethyl-4-phosphonobut-3-enyloxy)guanine], the half-inhibitory concentration (IC50) amounted to 60 mg/L (≈ 181 µM) in the data set with HSV-2, 5 mg/L (≈ 15.1 µM) in the data set with VZV, 15 mg/L (≈ 45.3 µM) with CMV and 100 mg/L (≈ 302 µM) in the data set with HSV-1. Also, the MIC with FIV came to 0.1 mg/L (≈ 0.302 µM). Besides, the MCC in data set [1] (setting [5]) amounted to 1 µg/mL.
Take `Nc1ncnc2c1ncn2OCC(/C=C/P(=O)(O)O)CO` (stereo not drawn) [Example 15, (E)-9-(2-hydroxymethyl-4-phosphonobut-3-enyloxy) adenine]: in the data set on FIV, the MIC is 30 mg/L (≈ 95.2 µM). Besides, the MCC in data set [1] (setting [4]) is greater than 100 µg/mL.
For `Nc1ncnc2c1ncn2CC(/C=C/P(=O)(O)O)CO` (stereo not drawn) [Example 17, (E)-9-(2-Hydroxymethyl-4-phosphonobut-3-enyl)adenine], the 50% inhibitory concentration (IC50) in the data set on HSV-2 is 29 mg/L (≈ 96.9 µM); with VZV, less than 3 mg/L; in the data set with CMV it was 11 mg/L (≈ 36.8 µM); in the data set on HSV-1 it was 20 mg/L (≈ 66.8 µM). The MIC with FIV was determined as 0.03 mg/L (≈ 0.1 µM). Also, the MCC in data set [1] (setting [5]) came out at 10 µg/mL.
